{
  "source": "patent US20230192701A1",
  "about": "“BICYCLIC KINASE INHIBITORS AND USES THEREOF” (iOmx Therapeutics AG, priority 2020, published 2023)",
  "key": {"human skin explants": {"tested_on": "human skin explants", "conditions": "topical treatment; Mujahid et al 2017; cited from earlier work"}, "[1]": {"tested_on": "MPAL-associated AML cell lines (including MOLM-13 and MV4-11)", "conditions": "Tarumoto et al 2018; cited from earlier work"}, "MC38 tumour cells": {"tested_on": "MC38 tumour cells", "assay": "TNF-sensitised cell viability assay (CellTiter-Glo), MC38", "assay_type": "cell-based, murine", "conditions": "Mus musculus, MC-38, read-out: MC38 IC50 (at 100 ng/ml rMuTNF); 100 ng/ml rMuTNF, 72 h", "experimental": "(§1) Cell viability of HCT116 tumour cells was measured using the CellTiter-Glo (CTG) luminescent cell viability assay (Promega, Madison, USA) according to the manufacturer's protocol. In short, 1×10^3 HCT116 cells were seeded in a 384-well plate for 24 h and subsequently treated with different concentrations of compounds and 10 ng/ml rHuTNF for 72 h at 37° C. and 5% CO2. After incubation, CTG reagent was added to the wells and cells were lysed for 10 min. Read-out was performed using the Tecan reader with 0.1 sec counting time. TNF-induced cell killing in human PANC1 and murine MC38 tumour cells was measured analogously to the assay in human HCT116 cells, except that for the PANC1 assay 100 ng/ml rHuTNF and for the MC38 assay 100 ng/ml rMuTNF were used."}, "[2]": {"assay": "CaCo2 permeability and efflux assay", "assay_type": "in vitro ADME", "conditions": "human, Caco-2; CaCo2, mean efflux ratio", "experimental": "(§2) To determine apparent permeability of the compounds an assay using a Caco-2 cells monolayer (cultured for 21d) in a 24-well format (poly carbonate high pore density plate with 0.4 μm pore size and a 0.7 cm2 active membrane area; Millipore) was performed as followed. 800 uL of DMEM was added to the basal compartment of the 24 well-plate and 60000 CaCo2 cells/well were seeded in the apical wells and incubated in a CO2 incubator at 37° C. for proliferation of cells. Apical to Basal permeability was determined by adding 400 uL of test compound to the apical well and 800 uL of HBSS buffer with 2% BSA to the basal well. 25 uL of basal sample was collected after 120 min and processed as stated below. Basal to Apical permeability was determined by adding 800 uL of test compound to basal well and 400 uL of HBSS buffer with 2% BSA to apical well. 25 uL of apical sample was collected after 120 min and processed as stated below. The samples were processed by diluting the donor samples 1:1 with HBSS containing 2% BSA and the receiver samples 1:1 with HBSS buffer. Samples were then precipitated with 200 uL of acetonitrile containing internal standard, vortexed for 5 min at 1000 rpm, and centrifuged at 4000 rpm for 20 min. 150 uL of supernatant was diluted with 150 uL of water and submitted for LC-MS/MS analysis, and Bi-directional (A-B and B-A) apparent permeability (Papp) was calculated.\n(§3) LC-MS/MS was performed for all assays using a C18 column (50*4.6 mm, 5 um) for the CaCo2 assay, or a C18 column (50*4.6 mm, 4 um) for the other assays. The mobile phases used were 10 mM Ammonium Acetate with 0.1% Formic acid (aqueous) and 100% Acetonitrile (organic)."}, "Caco-2 cells monolayer": {"tested_on": "Caco-2 cells monolayer", "assay": "CaCo2 permeability and efflux assay", "assay_type": "in vitro ADME", "conditions": "CaCo2, apical to basal, 120 min", "experimental": "as §2, §3"}, "[3]": {"assay": "Murine plasma protein binding (RED method)", "assay_type": "in vitro ADME", "conditions": "mouse", "experimental": "(§4) Human and mice protein plasma binding was determined using the Plasma Protein Binding by RED Method. Briefly, 200 uL of the respective plasma containing the test compound (10 uM) was spiked into the donor well (RED Chamber) of the insert. 350 uL of PBS was spiked into receiver well (white chamber). The plate was incubated at 37° C. in a thermomixer at 400 rpm for 5 hours. The samples were matrix equilibrated with opposite matrix (25 uL blank buffet/Plasma). Matrix matched samples were precipitated with 200 uL of Acetonitrile containing Internal standard. Samples were vortexed at 1000 rpm for 5 min and centrifuged at 4000 rpm for 10 min. The supernatant was diluted 2 folds with water and % bound and unbound protein and % recovery at 5 h was determined by LC-MS/MS.\nas §3"}, "AML": {"tested_on": "AML", "conditions": "administered intraperitoneally; Tarumoto et al 2020; cited from earlier work"}, "Kinetic solubility assay": {"assay": "Kinetic solubility assay", "assay_type": "physicochemical", "conditions": "aqueous buffer, kinetic from dmso stock; PBS buffer pH 7.4, 1.0% DMSO, 24 h at RT", "experimental": "The Kinetic solubility assay was conducted as follows. 4 uL compound of the 50 mM DMSO stock was added to deep well plate containing 396 uL PBS buffer (pH 7.4). The DMSO content in the sample was 1.0%, and the compound concentration 500 μM. The sample plate was vortexed at 800 rpm for 24 h at RT on a thermomixer. At the end of the incubation period, the sample plate was centrifuged at 4000 rpm for 10 mins. 3 uL of supernatant was transferred to well containing 297 uL of ISTD in Acetonitrile water:50:50, v/v and analysed in LC-MS/MS against a calibration curve (CC)."}, "PANC1 tumour cells": {"tested_on": "PANC1 tumour cells", "assay": "TNF-sensitised cell viability assay (CellTiter-Glo), PANC1", "assay_type": "cell-based, human", "conditions": "Homo sapiens, PANC-1, read-out: PANC IC50 (at 100 ng/ml rHuTNF); 100 ng/ml rHuTNF, 72 h", "experimental": "as §1"}, "[4]": {"assay": "Mouse liver microsomal stability", "assay_type": "in vitro ADME", "conditions": "pH 7.4; mouse liver microsomes, NADPH, 37°C", "experimental": "(§5) Briefly, human and liver microsomal stability was determined by pre-incubation of 2.5 uL compound and 75 uL of the respective liver microsomes in potassium phosphate buffer (pH 7.4) at 37° C. After adding of NADPH as cofactor and further incubation at 37° C. for 60 min, acetonitrile containing internal standard was added, and the sample was vortexed for 5 min at 1200 rpm and then centrifuged 10 min at 4000 rpm.\nas §3"}, "[5]": {"assay": "Human hepatocyte stability", "assay_type": "in vitro ADME", "conditions": "human hepatocytes, 37°C", "experimental": "(§6) Determination of human and mice hepatocyte stability was conducted as follows. 200 uL of the respective hepatocyte cell suspension (2×10e6/ml) was preincubated at 37° C. for 10 min. Then, 200 uL of a 2 uM working stock of the test compound was added to the hepatocyte cell suspension, and the mixture was further incubated at 37° C. and 500 rpm. The reaction was stopped at 30, 60 and 120 min by precipitating 50 uL of the incubation mixture with 200 uL of acetonitrile. Samples were vortexed for 5 min at 1200 rpm and centrifuged at 4000 rpm for 10 min. Intrinsic clearance and half-life were analysed using LC-MS/MS.\nas §3"}, "[6]": {"assay": "Human liver microsomal stability", "assay_type": "in vitro ADME", "conditions": "pH 7.4; human liver microsomes, NADPH, 37°C", "experimental": "as §5, §3"}, "[7]": {"assay": "Mouse hepatocyte stability", "assay_type": "in vitro ADME", "conditions": "mouse hepatocytes, 37°C", "experimental": "as §6, §3"}, "[8]": {"assay": "Human plasma-protein binding (RED method)", "assay_type": "in vitro ADME", "experimental": "as §4, §3"}, "HCT116 tumour cells": {"tested_on": "HCT116 tumour cells", "assay": "TNF-sensitised cell viability assay (CellTiter-Glo), HCT116", "assay_type": "cell-based, human", "conditions": "Homo sapiens, HCT-116, read-out: HCT116 IC50 (at 10 ng/ml rHuTNF); 10 ng/ml rHuTNF, 72 h", "experimental": "as §1"}, "[9]": {"assay": "pharmacokinetic study, plasma level after single po or iv administration", "assay_type": "in vivo, male CD1 mice", "conditions": "mice", "experimental": "Screening PK properties of compounds of Formula (I) are additionally determined, including plasma and free plasma concentration, as well as Cmax. For example, the free concentration of compound after a dose of eg 30 mg/kg po (per os) administered mice can be determined for certain time points after administrations.\nTo further investigate PK properties of kinase inhibitors of Formula (I), the compounds are tested for in vivo drug exposure and potency in a full pharmacokinetic study with oral administration (per os, po).\nThe experimental procedure and the determination of the pharmacokinetic parameters are investigated after single administration of each compound per gavage in male CD1 mice (Intonation Research Laboratories (Hyderabad, India)). The compounds are diluted in 5% DMSO+5% Solutol+90% water. Plasma level (eg sampling 0.25 h; 0.5 h; 1 h; 1.5 h; 2 h; 4 h; 6 h; 12 h; 24 h after drug administration) of the compounds are analysed by LC-MS/MS and pharmacokinetic parameters are determined using non-compartmental analysis and nominal dose levels of eg 30 mg/kg po and 1 mg/kg iv. Three animals are analysed per time point and each mouse is used for three plasma samplings in total."}},
  "data": [
    {"compound": "COc1ccc(N(C(=O)Nc2c(C)cccc2C)c2cc(Nc3ccc(N4CCN(C)CC4)cc3)ncn2)c(OC)c1", "note": "[HG-9-91-01]", "values": [
      {"measurement": "eumelanisation in human skin", "setting": "human skin explants", "value": "able to induce eumelanisation"},
      {"measurement": "viability of MPAL-associated AML cell lines", "setting": "[1]", "value": "strongly decreases viability"}
    ]},
    {"compound": "COc1ccc(N2C(=O)N(c3c(C)cccc3Cl)Cc3cnc(Nc4ccc(C5CCN(C)CC5)cc4OC)nc32)nc1", "note": "[PY1, 3-(2-chloro-6-methylphenyl)-7-((2-methoxy-4-(1-methylpiperidin-4-yl)phenyl)amino)-1-(5-methoxypyridin-2-yl)-3,4-dihydropyrimido[4,5-d]pyrimidin-2(1H)-one, reference compound]", "values": [
      {"measurement": "IC50", "setting": "MC38 tumour cells", "value": "500 to 1000", "unit": "nM"},
      {"measurement": "efflux ratio at 120 min", "setting": "[2]", "value": 3.2},
      {"measurement": "A > B(10 EE-06 cm/s)", "setting": "Caco-2 cells monolayer", "value": "9.5 10 EE-06 cm/s"},
      {"measurement": "recovery at 5 h, 10 uM", "setting": "[3]", "value": 42, "unit": "%"},
      {"measurement": "AML progression in-vivo", "setting": "AML", "value": "suppressed AML progression in-vivo"},
      {"measurement": "solubility kinetic at 24 h", "setting": "Kinetic solubility assay", "value": 3.6, "unit": "µM"},
      {"measurement": "IC50", "setting": "PANC1 tumour cells", "value": "500 to 1000", "unit": "nM"},
      {"measurement": "half-life", "setting": "[4]", "value": 1.45, "unit": "h"},
      {"measurement": "half-life at 1 uM", "setting": "[5]", "value": 10.7, "unit": "h"},
      {"measurement": "half-life", "setting": "[6]", "value": 2.57, "unit": "h"},
      {"measurement": "half-life at 1 uM", "setting": "[7]", "value": 1.25, "unit": "h"},
      {"measurement": "recovery at 5 h, 10 uM", "setting": "[8]", "value": 53, "unit": "%"},
      {"measurement": "IC50", "setting": "HCT116 tumour cells", "value": "500 to 1000", "unit": "nM"},
      {"measurement": "compound detectable in plasma after 24 h", "setting": "[9]; 1 mg/kg iv", "value": "No PY1 (the prior art compound YKL-05-099) was detectable after 24 h"},
      {"measurement": "compound detectable in plasma after 24 h", "setting": "[9]; 30 mg/kg po", "value": "No PY1 (the prior art compound YKL-05-099) was detectable after 24 h"}
    ]}
  ]
}
